Assay results reported in patent US20240158446A1, “CYCLIC COMPOUND HAVING SELECTIVE INHIBITORY ACTION ON KRAS OVER HRAS AND NRAS” (CHUGAI SEIYAKU KABUSHIKI KAISHA, priority 2021, published 2024).
Like-named read-outs stand apart in the source and are kept apart here. Where a SMILES comes first, the peptide text is derived from it. Bridges are numbered along the chain shown (N, C = ends). [ ]: non-standard residue; d: D form. The star is where a group is joined. hPhe(3,5-F2-4-CF3) = N[C@@H](CCc1cc(F)c(C(F)(F)F)c(F)c1)C(=O)O; NPrPhe(4-CF3) = CCCN[C@@H](Cc1ccc(C(F)(F)F)cc1)C(=O)O; NMeGly(cPent) = CN[C@H](C(=O)O)C1CCCC1; NMeD = CN[C@@H](CC(=O)O)C(=O)O; NMeL = CN[C@@H](CC(C)C)C(=O)O; αMeL = CC(C)C[C@](C)(N)C(=O)O; Morpholide = C1CN(*)CCO1; Sar = CNCC(=O)O

What was measured:
[1] = molecular target: GDP-bound KRAS wild-type protein (Homo sapiens, UniProt P01116); assay: Binding to KRAS by surface plasmon resonance (SPR), Single Cycle Kinetics; conditions: GDP-bound KRAS wild-type protein, read-out: KRAS KD
[2] = molecular target: GDP-bound NRAS wild-type protein (Homo sapiens, UniProt P01111); assay: Binding to NRAS by surface plasmon resonance (SPR), Single Cycle Kinetics; conditions: for NRAS/KRAS (ratio of KD value with respect to GDP-bound NRAS wild-type protein to KD value with respect to KRAS): SPR KD ratio NRAS/KRAS, class symbols
[3] = molecular target: GDP-bound HRAS wild-type protein (Homo sapiens, UniProt P01112); assay: Binding to HRAS by surface plasmon resonance (SPR), Single Cycle Kinetics; conditions: for HRAS/KRAS (ratio of KD value with respect to GDP-bound HRAS wild-type protein to KD value with respect to KRAS): SPR KD ratio HRAS/KRAS, class symbols
[4] = system: human lung cancer strain NCI-H441;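 further: cell proliferation inhibition after four days measured by CellTiter-Glo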
[5] = SPR Single Cycle Kinetics, 1:1 binding model
[6] = SPR, GDP-bound NRAS wild-type protein vs GDP-bound KRAS wild-type protein
[7] = SPR, GDP-bound HRAS wild-type protein vs GDP-bound KRAS wild-type protein
[8] = SPR, Single Cycle Kinetics, 1:1 binding model
[9] = SPR, GDP-bound NRAS wild-type protein vs GDP-bound KRAS wild-type protein, KD ratio class
[10] = SPR, GDP-bound HRAS wild-type protein vs GDP-bound KRAS wild-type protein, KD ratio class

GDP-bound KRAS wild-type protein, sequence (P01116 whole entry): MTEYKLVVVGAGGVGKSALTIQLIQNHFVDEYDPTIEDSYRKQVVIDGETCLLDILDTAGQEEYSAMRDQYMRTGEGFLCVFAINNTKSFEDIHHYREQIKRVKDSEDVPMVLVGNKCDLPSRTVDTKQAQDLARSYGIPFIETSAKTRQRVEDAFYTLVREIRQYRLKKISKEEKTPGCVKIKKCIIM
GDP-bound HRAS wild-type protein, sequence (P01112 whole entry): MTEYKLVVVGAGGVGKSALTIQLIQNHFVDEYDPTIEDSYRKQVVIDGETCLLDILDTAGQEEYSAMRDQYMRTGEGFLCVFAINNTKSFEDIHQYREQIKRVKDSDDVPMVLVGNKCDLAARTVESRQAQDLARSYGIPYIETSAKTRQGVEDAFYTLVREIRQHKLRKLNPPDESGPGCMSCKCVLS
GDP-bound NRAS wild-type protein, sequence (P01111 whole entry): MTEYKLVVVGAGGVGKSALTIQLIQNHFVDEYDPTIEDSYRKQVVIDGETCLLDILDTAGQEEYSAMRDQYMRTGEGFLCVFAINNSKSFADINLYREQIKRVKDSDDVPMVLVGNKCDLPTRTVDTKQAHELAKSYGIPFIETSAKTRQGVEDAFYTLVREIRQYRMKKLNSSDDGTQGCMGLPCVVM

## CCOC[C@H]1C(=O)N[C@@H]([C@@H](C)CC)C(=O)N(C2CC2)CC(=O)N(C)[C@H]2C/C=C\CCN(C2=O)[C@@H](Cc2ccc(C)cc2)C(=O)N(C)CC(=O)N[C@@H](CCc2ccc(Cl)c(Cl)c2)C(=O)N2C[C@H](OCC)C[C@H]2C(=O)NC2(CC(C)(C)C2)C(=O)N(C)[C@@H](CC(C)(C)C)C(=O)N(C)[C@H](C(=O)N(C)C)CC(=O)N1C [PP2728]
[1]; [5]
  Kd: 1.1 nM
[2]
  NRAS/KRAS (ratio of KD value with respect to GDP-bound NRAS wild-type protein to KD value with respect to KRAS): AA (a compound having 20 or more is denoted as AA)
[3]
  HRAS/KRAS (ratio of KD value with respect to GDP-bound HRAS wild-type protein to KD value with respect to KRAS): A (a compound having 10 or more and less than 20 is denoted as A)
[4]
  IC50: 54.3 nM

## CCO[C@@H]1C[C@H]2C(=O)NC3(CCC3)C(=O)N(C)[C@@H](C3CCCC3)C(=O)N(C)[C@H](C(=O)N3CCOCC3)CC(=O)N(C)[C@@H](CC3CC3)C(=O)N[C@@H]([C@@H](C)CC)C(=O)N(C)CC(=O)N(C)[C@H]3CCCCCN(C3=O)[C@@H](Cc3ccc(F)cc3)C(=O)N(C)CC(=O)N[C@@H](CCc3cc(F)c(C(F)(F)F)c(F)c3)C(=O)N2C1 [PP1178]
[1]; SPR, Single Cycle Kinetics
  Kd: 0.16 nM
[2]; [6]
  NRAS/KRAS (ratio of KD value for NRAS to KD value for KRAS): B (a compound having 3 or more and less than 10 is denoted as B)
[3]; [7]
  HRAS/KRAS (ratio of KD value for HRAS to KD value for KRAS): B (a compound having 3 or more and less than 10 is denoted as B)
[4]
  IC50: 26.3 nM

## CCCN1C(=O)CN(C)C(=O)CN(C)C(=O)[C@H]([C@@H](C)CC)NC(=O)[C@H](CC(C)C)N(C)C(=O)C[C@@H](C(=O)N2CCOCC2)N(C)C(=O)[C@H](C2CCCC2)N(C)C(=O)[C@](C)(CC(C)C)NC(=O)[C@@H]2CCCN2C(=O)[C@H](CCc2cc(F)c(C(F)(F)F)c(F)c2)NC(=O)CN(C)C(=O)[C@@H]1Cc1ccc(C(F)(F)F)cc1 [PP0759] ([NMeL]I[Sar][Sar][NPrPhe(4-CF3)][Sar][hPhe(3,5-F2-4-CF3)]P[αMeL][NMeGly(cPent)][NMeD]-Morpholide; lactam N-11)
[1]; [5]
  Kd: 2.7 nM
[2]; [6]
  NRAS/KRAS (ratio of KD value with respect to NRAS to KD value with respect to KRAS): B (a compound having 3 or more and less than 10 is denoted as B)
[3]; [7]
  HRAS/KRAS (ratio of KD value with respect to HRAS to KD value with respect to KRAS): B (a compound having 3 or more and less than 10 is denoted as B)
[4]
  IC50: 185 nM

## CCO[C@@H]1C[C@H]2C(=O)NC3(CCC3)C(=O)N(C)[C@@H](C3CCCC3)C(=O)N(C)[C@H](C(=O)N3CCCCC3)CC(=O)N(C)[C@@H](CC)C(=O)N[C@@H]([C@@H](C)CC)C(=O)N(C)CC(=O)N(C)[C@H]3C/C=C\CCN(C3=O)[C@@H](Cc3ccc(C(F)(F)F)cc3)C(=O)N(C)CC(=O)N[C@@H](CCc3cc(F)c(C(F)(F)F)c(F)c3)C(=O)N2C1 [PP1289]
[1]; [8]
  Kd: 0.17 nM
[2]; [9]
  NRAS/KRAS (ratio of KD value for NRAS to KD value for KRAS): AA (a compound having 20 or more is denoted as AA)
[3]; [10]
  HRAS/KRAS (ratio of KD value for HRAS to KD value for KRAS): A (a compound having 10 or more and less than 20 is denoted as A)
[4]
  IC50: 34.7 nM

## CCO[C@@H]1C[C@H]2C(=O)NC3(CCCC3)C(=O)N(C)[C@@H](C3CCCC3)C(=O)N(C)[C@H](C(=O)N3CCOCC3)CC(=O)N(C)[C@@H](CC)C(=O)N[C@@H]([C@@H](C)CC)C(=O)N(C)CC(=O)N(C)[C@H]3CC[C@@H](C)CN(C3=O)[C@@H](Cc3ccc(C(F)(F)F)cc3)C(=O)N(C)CC(=O)N[C@@H](CCc3ccc(C(F)(F)F)c(Cl)c3)C(=O)N2C1 [PP1377]
[1]; [8]
  Kd: 0.087 nM
[2]; [9]
  NRAS/KRAS (ratio of KD value for NRAS to KD value for KRAS): B (a compound having 3 or more and less than 10 is denoted as B)
[3]; [10]
  HRAS/KRAS (ratio of KD value for HRAS to KD value for KRAS): B (a compound having 3 or more and less than 10 is denoted as B)
[4]
  IC50: 5.8 nM

## CCCOC[C@H]1C(=O)N[C@@H]([C@@H](C)CC)C(=O)N(C)CC(=O)N(C)[C@H]2C/C=C\CCN(C2=O)[C@@H](Cc2ccc(C)cc2)C(=O)N(C)CC(=O)N[C@@H](CCc2cc(F)c(C(F)(F)F)c(F)c2)C(=O)N2C[C@H](OCC)C[C@H]2C(=O)NC2(CC(C)(C)C2)C(=O)N(C)[C@@H](CC2CCC2)C(=O)N(C)[C@H](C(=O)N(C)C)CC(=O)N1C [PP2752]
[1]; [5]
  Kd: 1.2 nM
[2]
  NRAS/KRAS (ratio of KD value with respect to GDP-bound NRAS wild-type protein to KD value with respect to KRAS): A (a compound having 10 or more and less than 20 is denoted as A)
[3]
  HRAS/KRAS (ratio of KD value with respect to GDP-bound HRAS wild-type protein to KD value with respect to KRAS): A (a compound having 10 or more and less than 20 is denoted as A)
[4]
  IC50: 70.3 nM

## CCC[C@H]1C(=O)N[C@@H]([C@@H](C)CC)C(=O)N(C)CC(=O)N(C)[C@H]2C/C=C\CCN(C2=O)[C@@H](CC2CCC(F)(F)CC2)C(=O)N(C)CC(=O)N[C@@H](CCc2cc(F)c(C(F)(F)F)c(F)c2)C(=O)N2C[C@H](OCC)C[C@H]2C(=O)NC2(CCC2)C(=O)N(C)[C@@H](C2CCCC2)C(=O)N(C)[C@H](C(=O)N(C)C)CC(=O)N1C [PP1450, (2S,8S,12R,14S,20S,23S,27S,30S,36S,38Z)-20-cyclopentyl-2-[(4,4-difluorocyclohexyl)methyl]-8-[2-[3,5-difluoro-4-(trifluoromethyl)phenyl]ethyl]-12-ethoxy-N,N,4,19,22,26,32,35-octamethyl-30-[(1S)-1-methylpropyl]-3,6,9,15,18,21,25,28,31,34,42-undecaoxo-27-propyl-spiro[1,4,7,10,16,19,22,26,29,32,35-undecazatricyclo[34.5.1.0^10,14]dotetracont-38-ene-17,1′-cyclobutane]-23-carboxamide]
[1]; [8]
  Kd: 0.14 nM
[2]; [9]
  NRAS/KRAS (ratio of KD value for NRAS to KD value for KRAS): A (a compound having 10 or more and less than 20 is denoted as A)
[3]; [10]
  HRAS/KRAS (ratio of KD value for HRAS to KD value for KRAS): A (a compound having 10 or more and less than 20 is denoted as A)
[4]
  IC50: 50.1 nM

## CC[C@H](C)[C@@H]1NC(=O)[C@H](COC)N(C)C(=O)C[C@@H](C(=O)N2CCCCC2)N(C)C(=O)[C@H](C2CCCC2)N(C)C(=O)C2(CC(C)(C)C2)NC(=O)[C@@H]2C[C@@H](OC(C)C)CN2C(=O)[C@H](CCc2cc(F)c(C(F)(F)F)c(F)c2)NC(=O)CN(C)C(=O)[C@H](Cc2ccc(C(F)(F)F)cc2)N2CC/C=C\C[C@@H](C2=O)N(C)C(=O)CN(C2CC2)C1=O [PP2667]
[1]; [5]
  Kd: 1.8 nM
[2]
  NRAS/KRAS (ratio of KD value with respect to GDP-bound NRAS wild-type protein to KD value with respect to KRAS): A (a compound having 10 or more and less than 20 is denoted as A)
[3]
  HRAS/KRAS (ratio of KD value with respect to GDP-bound HRAS wild-type protein to KD value with respect to KRAS): A (a compound having 10 or more and less than 20 is denoted as A)
[4]
  IC50: 30.6 nM

## CCO[C@@H]1C[C@H]2C(=O)NC3(CCC3)C(=O)N(C)[C@@H](C(CC)CC)C(=O)N(C)[C@H](C(=O)N(C)C)CC(=O)N(C)[C@@H](CC(C)C)C(=O)N[C@@H]([C@@H](C)CC)C(=O)N(C)CC(=O)N(C)[C@H]3C/C=C\CCN(C3=O)[C@@H](Cc3ccc(C(F)(F)F)cc3)C(=O)N(C)CC(=O)N[C@@H](CCc3cc(F)c(Cl)c(F)c3)C(=O)N2C1 [PP1232]
[1]; [8]
  Kd: 0.67 nM
[2]; [9]
  NRAS/KRAS (ratio of KD value for NRAS to KD value for KRAS): A (a compound having 10 or more and less than 20 is denoted as A)
[3]; [10]
  HRAS/KRAS (ratio of KD value for HRAS to KD value for KRAS): A (a compound having 10 or more and less than 20 is denoted as A)
[4]
  IC50: 59.7 nM

## CCO[C@H](C)[C@@H]1NC(=O)[C@H](CC(C)C)N(C)C(=O)C[C@@H](C(=O)N(C)C)N(C)C(=O)[C@H](C2CCCC2)N(C)C(=O)C2(CC(C)(C)C2)NC(=O)[C@@H]2C[C@H](C)CN2C(=O)[C@H](CCc2ccc(C(F)(F)F)c(OC)c2)NC(=O)CN(C)C(=O)[C@H](Cc2ccc(C)cc2)N2CC/C=C\C[C@@H](C2=O)N(C)C(=O)[C@@H]2CCCN2C1=O [PP2418]
[1]; SPR, Single Cycle Kinetics
  Kd: 0.97 nM
[2]; [6]
  NRAS/KRAS (ratio of KD value for NRAS to KD value for KRAS): A (a compound having 10 or more and less than 20 is denoted as A)
[3]; [7]
  HRAS/KRAS (ratio of KD value for HRAS to KD value for KRAS): B (a compound having 3 or more and less than 10 is denoted as B)
[4]
  IC50: 132 nM

## CCC[C@H]1C(=O)N[C@@H]([C@@H](C)CC)C(=O)N(C)CC(=O)N(C)[C@H]2C/C=C\CCN(C2=O)[C@@H](Cc2ccc(C)cc2)C(=O)N(C)CC(=O)N[C@@H](CCc2ccc(Cl)c(Cl)c2)C(=O)N2C[C@H](OCC)C[C@H]2C(=O)NC2(CC(C)(C)C2)C(=O)N(C)[C@@H](CC(C)(C)C)C(=O)N(C)[C@H](C(=O)N(C)C)CC(=O)N1C [PP2714]
[1]; [5]
  Kd: 0.25 nM
[2]
  NRAS/KRAS (ratio of KD value with respect to GDP-bound NRAS wild-type protein to KD value with respect to KRAS): A (a compound having 10 or more and less than 20 is denoted as A)
[3]
  HRAS/KRAS (ratio of KD value with respect to GDP-bound HRAS wild-type protein to KD value with respect to KRAS): A (a compound having 10 or more and less than 20 is denoted as A)
[4]
  IC50: 13.2 nM

## CCC(CC)[C@H]1C(=O)N(C)[C@H](C(=O)N(C)C)CC(=O)N(C)[C@@H](COC)C(=O)N[C@@H]([C@@H](C)CC)C(=O)N(C)CC(=O)N(C)[C@H]2C/C=C\CCN(C2=O)[C@@H](Cc2ccc(C(F)(F)F)cc2)C(=O)N(C)CC(=O)N[C@@H](CCc2ccc(Cl)c(Cl)c2)C(=O)N2C[C@H](OC3CCC3)C[C@H]2C(=O)NC2(CC(C)(C)C2)C(=O)N1C [PP2642]
[1]; [5]
  Kd: 0.44 nM
[2]
  NRAS/KRAS (ratio of KD value with respect to GDP-bound NRAS wild-type protein to KD value with respect to KRAS): AA (a compound having 20 or more is denoted as AA)
[3]
  HRAS/KRAS (ratio of KD value with respect to GDP-bound HRAS wild-type protein to KD value with respect to KRAS): A (a compound having 10 or more and less than 20 is denoted as A)
[4]
  IC50: 36.6 nM
